Data as given in patent US9850283B2, “Macrocyclic inhibitors of the PD-1/PD-L1 and CD80(B7-1)/PD-L1 protein/protein interactions” (BRISTOL-MYERS SQUIBB COMPANY, priority 2013, dated 2017).
Like-named read-outs stand apart in the source and are kept apart here. Starred links: 1 amine or outer side, 2 acyl side, 3 side chain; linkers in the order of their positions; H or OH if unused. Positions of bridges follow the written chain, without caps; N, C: chain ends. Non-standard residues stand in square brackets, D forms with d. Residues, ends and D or L forms follow the SMILES beside them. ξ: configuration not given here. Phe(3,4,5-F3) = N[C@@H](Cc1cc(F)c(F)c(F)c1)C(=O)O; Phe(4-Cl) = N[C@@H](Cc1ccc(Cl)cc1)C(=O)O; Phe(3-Me) = Cc1cccc(C[C@H](N)C(=O)O)c1; d(cisHyp) = O=C(O)[C@H]1C[C@@H](O)CN1; Hyp = O=C(O)[C@@H]1C[C@@H](O)CN1; NMeF = CN[C@@H](Cc1ccccc1)C(=O)O; X4 = O=C([C@H]1COCCN1[*:1])[*:2]; 4Pal = N[C@@H](Cc1ccncc1)C(=O)O; NMeL = CN[C@@H](CC(C)C)C(=O)O; NMehSer = CN[C@@H](CCO)C(=O)O; NMeNle = CCCC[C@H](NC)C(=O)O; NMeA = CN[C@@H](C)C(=O)O; Orn = NCCC[C@H](N)C(=O)O; Dab = NCC[C@H](N)C(=O)O; Dap = NC[C@H](N)C(=O)O; ξC = NC(CS)C(=O)O; Sar = CNCC(=O)O

Key:
[1] = molecular target: T1, LK35.2-hPD-L1 cells / PE-labeled PD-1-Ig (Homo sapiens, UniProt Q9NZQ7); assay: LK35.2-hPD-L1 cell binding high-content screening assay; format: cell-based; conditions: cluster symbol, read-out: CBA IC50 cluster
T1 construct: expressed in transfected cells; host or cells: LK35.2 mouse B cell line
T1 sequence (Q9NZQ7 19-290): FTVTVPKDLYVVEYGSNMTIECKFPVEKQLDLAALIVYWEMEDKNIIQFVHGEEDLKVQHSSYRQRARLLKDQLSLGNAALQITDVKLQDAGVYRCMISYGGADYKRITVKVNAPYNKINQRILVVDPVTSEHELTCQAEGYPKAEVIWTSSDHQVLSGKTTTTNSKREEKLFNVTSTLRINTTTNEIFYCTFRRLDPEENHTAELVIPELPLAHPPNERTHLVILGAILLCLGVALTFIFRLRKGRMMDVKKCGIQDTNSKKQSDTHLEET
In short: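 Mouse LK35.2 B cells stably over-expressing human PD-L1, cultured overnight, treated with compound plus PE-labeled human PD-1-Ig (1 nM final) in RPMI/10% FCS for 1 h at 37 °C. After washing, bound fluorescence quantified by high-content imaging.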

Human PD-L1/PD-1 = molecular target: T2, Human PD-L1/PD-1 (Homo sapiens, UniProt Q9NZQ7); assay: HTRF PD-1-Ig/PD-L1-His binding assay (human PD-L1); conditions: cluster symbol; read-out: HTRF IC50 cluster
T2 construct: made in house; host or cells: HEK293T
T2 sequence (Q9NZQ7 with tags, fused parts or gaps): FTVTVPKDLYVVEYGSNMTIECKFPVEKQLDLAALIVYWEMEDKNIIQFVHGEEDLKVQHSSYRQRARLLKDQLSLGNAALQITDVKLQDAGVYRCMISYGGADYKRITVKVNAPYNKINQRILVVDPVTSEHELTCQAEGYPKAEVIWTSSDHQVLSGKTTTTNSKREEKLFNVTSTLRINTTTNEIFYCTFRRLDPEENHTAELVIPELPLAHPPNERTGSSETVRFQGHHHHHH
In short: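 Interaction of Fc-tagged soluble PD-1 with His-tagged soluble PD-L1 is monitored by time-resolved FRET. Donor is europium cryptate anti-Ig (1 nM final) and acceptor is APC anti-His (20 nM final). Assay buffer is dPBS with 0.1% BSA and 0.05% Tween-20.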

[2] = cell binding assay, cell line not given
[3] = cell line of CBA not given (LK35.2-hPD-L1 or 293T-hPD-L1)

Row | SMILES | IC50 [1, 2] [nM] | IC50 (Human PD-L1/PD-1) [nM] | IC50 [1, 3] [nM]
1 | CCCC[C@H]1C(=O)N(C)[C@@H](CCCC)C(=O)N[C@@H](Cc2ccncc2)C(=O)N[C@H](C(=O)NCC(N)=O)CSCC(=O)N[C@@H](Cc2ccc(O)cc2)C(=O)N(C)[C@@H](C)C(=O)N[C@@H](CC(N)=O)C(=O)N2CCC[C@H]2C(=O)N[C@@H](Cc2cnc[nH]2)C(=O)N[C@@H](CC(C)C)C(=O)N2C[C@H](O)C[C@H]2C(=O)N[C@@H](Cc2c[nH]c3ccccc23)C(=O)N[C@@H](CO)C(=O)N[C@@H](Cc2c[nH]c3ccccc23)C(=O)N1C [Example 7031] | 4.78 to 72.9 | 0.385 to 6.74 | 
2 | CCCC[C@H]1C(=O)N(C)[C@@H](CCCC)C(=O)N[C@@H](C)C(=O)N[C@H](C(=O)NCC(N)=O)CSCC(=O)N[C@@H](Cc2ccc(O)cc2)C(=O)N(C)[C@@H](C)C(=O)N[C@@H](CCC(=O)O)C(=O)N2CCC[C@H]2C(=O)N[C@@H](Cc2cnc[nH]2)C(=O)N[C@@H](CCCN)C(=O)N2C[C@H](O)C[C@H]2C(=O)N[C@@H](Cc2c[nH]c3ccccc23)C(=O)N[C@@H](CO)C(=O)N[C@@H](Cc2c[nH]c3ccccc23)C(=O)N1C [Example 1178] ({CH2CO}-Y[NMeA]EPH[Orn][Hyp]WSW[NMeNle][NMeNle]ACG-NH2; thioether N-14) |  | 0.385 to 6.74 | 4.78 to 72.9
3 | CCCC[C@H]1C(=O)N(C)[C@@H](CCCC)C(=O)N[C@@H](CCCNC(=N)N)C(=O)N[C@H](C(=O)NCC(N)=O)CSCC(=O)N[C@@H](Cc2ccccc2)C(=O)N(C)[C@@H](C)C(=O)N[C@H](C)C(=O)N2CCC[C@H]2C(=O)N[C@@H](Cc2cnc[nH]2)C(=O)N[C@@H](CC(C)C)C(=O)N(C)CC(=O)N[C@@H](Cc2c[nH]c3ccccc23)C(=O)N[C@@H](CO)C(=O)N[C@@H](Cc2c[nH]c3ccccc23)C(=O)N1C [Example 1081] ({CH2CO}-F[NMeA][dA]PHL[Sar]WSW[NMeNle][NMeNle]RCG-NH2; thioether N-14) |  | > 30.5 | > 74.3
4 | CCCC[C@H]1C(=O)N(C)[C@@H](CCCC)C(=O)N[C@@H](CC(C)C)C(=O)N[C@H](C(=O)NCC(N)=O)CSCC(=O)N[C@@H](Cc2ccc(O)cc2)C(=O)N(C)[C@@H](C)C(=O)N[C@@H](CC(=O)O)C(=O)N2CCC[C@H]2C(=O)N[C@@H](Cc2cnc[nH]2)C(=O)N[C@@H](CC(C)C)C(=O)N2C[C@H](O)C[C@H]2C(=O)N[C@@H](Cc2c[nH]c3ccccc23)C(=O)N[C@@H](CCN)C(=O)N[C@@H](Cc2c[nH]c3ccccc23)C(=O)N1C [Example 6027] ({CH2CO}-Y[NMeA]DPHL[Hyp]W[Dab]W[NMeNle][NMeNle]LCG-NH2; thioether N-14) | 0.158 to 4.71 | 0.385 to 6.74 | 
5 | CCCC[C@H]1C(=O)N2C[C@H](O)C[C@@H]2C(=O)N[C@@H](CC(N)=O)C(=O)N[C@@H](C(C)C)C(=O)N(C)[C@@H](Cc2ccccc2)C(=O)N[C@@H](CCC(=O)O)C(=O)N2CCOC[C@@H]2C(=O)N[C@@H](Cc2c[nH]c3ccccc23)C(=O)N[C@@H](Cc2ccc(O)cc2)C(=O)N[C@@H](CCCN)C(=O)N[C@H](C(=O)NCC(N)=O)CSCC(=O)N[C@@H](Cc2cc(F)c(F)c(F)c2)C(=O)N(C)[C@@H](Cc2ccccc2)C(=O)N1C [Example 3608] ({CH2CO}-[Phe(3,4,5-F3)][NMeF][NMeNle][d(cisHyp)]NV[NMeF]E[X4]WY[Orn]CG-NH2; thioether N-13) | 0.158 to 4.71 | 0.385 to 6.74 | 
6 | CCCC[C@H]1C(=O)N[C@@H](CCCNC(=N)N)C(=O)NC(C(=O)NCC(N)=O)CSCC(=O)N[C@@H](Cc2ccc(O)cc2)C(=O)N(C)[C@@H](C)C(=O)N[C@@H](CC(=O)O)C(=O)N2CCC[C@H]2C(=O)N[C@@H](Cc2cnc[nH]2)C(=O)N[C@@H](CC(C)C)C(=O)N2CCC[C@H]2C(=O)N[C@@H](Cc2c[nH]c3ccccc23)C(=O)N[C@@H](CO)C(=O)N[C@@H](Cc2c[nH]c3ccccc23)C(=O)N(C)[C@@H](CCOC)C(=O)N1C (stereo partly shown) [Example 9010] ({CH2CO}-Y[NMeA]DPHLPWSW[NMehSer](Me)[NMeNle]R[ξC]G-NH2; thioether N-14) | 4.78 to 72.9 | 6.76 to 30.3 | 
7 | CCCC[C@H]1C(=O)N(C)CC(=O)N[C@@H](CC(=O)O)C(=O)N[C@@H](C(C)C)C(=O)N(C)[C@@H](Cc2ccccc2)C(=O)N[C@@H](Cc2ccc(O)cc2)C(=O)N(C)CC(=O)N[C@@H](Cc2c[nH]c3ccccc23)C(=O)N[C@@H](Cc2ccc(O)cc2)C(=O)N[C@@H](CCCCN)C(=O)N[C@H](C(=O)NCC(N)=O)CSCC(=O)N[C@@H](Cc2ccccc2)C(=O)N(C)[C@@H](Cc2ccccc2)C(=O)N1C [Example 3164] (HELM PEPTIDE1{[O=C(C[*:3])[*:2]].F.[meF].[CCCC[C@@H](C(=O)[*:2])N(C)[*:1]].[Sar].D.V.[meF].Y.[Sar].W.Y.K.C.G.[am]}$PEPTIDE1,PEPTIDE1,1:R3-14:R3$$$V2.0) |  | 6.76 to 30.3 | 4.78 to 72.9
8 | CCCC[C@H]1C(=O)N[C@@H](CN)C(=O)N[C@H](C(=O)NCC(N)=O)CSCC(=O)N[C@@H](Cc2ccc(O)cc2)C(=O)N(C)[C@@H](C)C(=O)N[C@@H](CC(N)=O)C(=O)N2CCC[C@H]2C(=O)N[C@@H](Cc2c[nH]cn2)C(=O)N[C@@H](CCC(=O)O)C(=O)N2C[C@H](O)C[C@H]2C(=O)N[C@@H](Cc2c[nH]c3ccccc23)C(=O)N[C@@H](CCN)C(=O)N[C@@H](Cc2c[nH]c3ccccc23)C(=O)N(C)[C@@H](CC(C)C)C(=O)N1C [Example 5143] ({CH2CO}-Y[NMeA]NPHE[Hyp]W[Dab]W[NMeL][NMeNle][Dap]CG-NH2; thioether N-14) | 4.78 to 72.9 | 0.385 to 6.74 | 
9 | CCCC[C@H]1C(=O)N(C)[C@@H](CCCC)C(=O)N[C@@H](CCCNC(=N)N)C(=O)N[C@H](C(=O)NCC(N)=O)CSCC(=O)N[C@@H](Cc2ccc(Cl)cc2)C(=O)N(C)[C@@H](C)C(=O)N[C@@H](CC(N)=O)C(=O)N2CCC[C@H]2C(=O)N[C@@H](Cc2cnc[nH]2)C(=O)N[C@@H](CC(C)C)C(=O)N2C[C@H](O)C[C@H]2C(=O)N[C@@H](Cc2c[nH]c3ccccc23)C(=O)N[C@@H](CO)C(=O)N[C@@H](Cc2c[nH]c3ccccc23)C(=O)N1C [Example 7054] ({CH2CO}-[Phe(4-Cl)][NMeA]NPHL[Hyp]WSW[NMeNle][NMeNle]RCG-NH2; thioether N-14) | 0.158 to 4.71 | 0.385 to 6.74 | 
10 | CCCC[C@H]1C(=O)N(C)CC(=O)N[C@@H](CC(=O)O)C(=O)N[C@@H](C(C)C)C(=O)N(C)[C@@H](Cc2ccccc2)C(=O)N2CCC[C@H]2C(=O)N2CCC[C@@H]2C(=O)N[C@@H](Cc2c[nH]c3ccccc23)C(=O)N[C@@H](Cc2ccc(O)cc2)C(=O)N[C@@H](CC(C)C)C(=O)N[C@H](C(=O)NCC(N)=O)CSCC(=O)N[C@@H](Cc2ccccc2)C(=O)N(C)[C@@H](Cc2ccccc2)C(=O)N1C [Example 3176] (HELM PEPTIDE1{[O=C(C[*:3])[*:2]].F.[meF].[CCCC[C@@H](C(=O)[*:2])N(C)[*:1]].[Sar].D.V.[meF].P.[dP].W.Y.L.C.G.[am]}$PEPTIDE1,PEPTIDE1,1:R3-14:R3$$$V2.0) |  | > 30.5 | > 74.3
11 | CCCC[C@H]1C(=O)N(C)[C@@H](CCCC)C(=O)N[C@@H](CCCNC(=N)N)C(=O)N[C@H](C(=O)NCC(N)=O)CSCC(=O)N[C@@H](Cc2ccc(O)cc2)C(=O)N(C)[C@@H](C)C(=O)N[C@@H](CC(N)=O)C(=O)N2CCC[C@H]2C(=O)N[C@@H](Cc2ccncc2)C(=O)N[C@@H](CC(C)C)C(=O)N2C[C@H](O)C[C@H]2C(=O)N[C@@H](Cc2c[nH]c3ccccc23)C(=O)N[C@@H](CO)C(=O)N[C@@H](Cc2c[nH]c3ccccc23)C(=O)N1C [Example 7028] ({CH2CO}-Y[NMeA]NP[4Pal]L[Hyp]WSW[NMeNle][NMeNle]RCG-NH2; thioether N-14) | 0.158 to 4.71 | 6.76 to 30.3 | 
12 | CCCC[C@H]1C(=O)N(C)[C@@H](CCCC)C(=O)N[C@@H](CC(C)C)C(=O)N[C@H](C(=O)NCC(N)=O)CSCC(=O)N[C@@H](Cc2ccc(O)cc2)C(=O)N(C)[C@@H](C)C(=O)N[C@@H](CC(N)=O)C(=O)N2CCC[C@H]2C(=O)N[C@@H](Cc2cnc[nH]2)C(=O)N[C@@H](CC(C)C)C(=O)N2C[C@H](O)C[C@H]2C(=O)N[C@@H](Cc2c[nH]c3ccccc23)C(=O)N[C@@H](CO)C(=O)N[C@@H](Cc2c[nH]c3ccccc23)C(=O)N1C [Example 6025] | 0.158 to 4.71 | 0.385 to 6.74 | 
13 | CCCC[C@H]1C(=O)N(C)CC(=O)N[C@@H](CC(=O)O)C(=O)N[C@@H](C(C)C)C(=O)N[C@@H](Cc2cccc(C)c2)C(=O)N[C@@H](Cc2ccc(O)cc2)C(=O)N(C)CC(=O)N[C@@H](Cc2c[nH]c3ccccc23)C(=O)N[C@@H](Cc2ccc(O)cc2)C(=O)N[C@@H](CC(C)C)C(=O)N[C@H](C(=O)NCC(N)=O)CSCC(=O)N[C@@H](Cc2ccccc2)C(=O)N(C)[C@@H](Cc2ccccc2)C(=O)N1C [Example 3134] ({CH2CO}-F[NMeF][NMeNle][Sar]DV[Phe(3-Me)]Y[Sar]WYLCG-NH2; thioether N-13) |  | > 30.5 | > 74.3
14 | CCCC[C@H]1C(=O)N(C)[C@@H](CCCC)C(=O)N[C@@H](CCCNC(=N)N)C(=O)N[C@H](C(=O)NCC(N)=O)C/C=C/C(=O)N[C@@H](Cc2ccc(O)cc2)C(=O)N(C)[C@@H](C)C(=O)N[C@@H](CC(N)=O)C(=O)N2CCCC2C(=O)N[C@@H](CN)C(=O)N[C@@H](CC(C)C)C(=O)N2C[C@H](O)C[C@H]2C(=O)N[C@@H](Cc2c[nH]c3ccccc23)C(=O)N[C@@H](CO)C(=O)N[C@@H](Cc2c[nH]c3ccccc23)C(=O)N1C (stereo partly shown) [Example 7013] | 4.78 to 72.9 | 6.76 to 30.3 | 
